Reference: patent US9126944B2, “Phenylpyrazole derivatives as potent ROCK1 and ROCK2 inhibitors” (BRISTOL-MYERS SQUIBB COMPANY, priority 2013, dated 2015)
Where two headings read alike, the source gives them in different places. Blank lines part the entries; values can stand above or below the compound they belong to.

Key:
[1] = target: ROCK1 (Homo sapiens, UniProt Q13464); test: ROCK assay (LabChip peptide phosphorylation), ROCK1; assay type: biochemical; settings: 5 μM ATP, 1.5 μM peptide substrate
Sequence of ROCK1 (Q13464 whole entry, species assumed): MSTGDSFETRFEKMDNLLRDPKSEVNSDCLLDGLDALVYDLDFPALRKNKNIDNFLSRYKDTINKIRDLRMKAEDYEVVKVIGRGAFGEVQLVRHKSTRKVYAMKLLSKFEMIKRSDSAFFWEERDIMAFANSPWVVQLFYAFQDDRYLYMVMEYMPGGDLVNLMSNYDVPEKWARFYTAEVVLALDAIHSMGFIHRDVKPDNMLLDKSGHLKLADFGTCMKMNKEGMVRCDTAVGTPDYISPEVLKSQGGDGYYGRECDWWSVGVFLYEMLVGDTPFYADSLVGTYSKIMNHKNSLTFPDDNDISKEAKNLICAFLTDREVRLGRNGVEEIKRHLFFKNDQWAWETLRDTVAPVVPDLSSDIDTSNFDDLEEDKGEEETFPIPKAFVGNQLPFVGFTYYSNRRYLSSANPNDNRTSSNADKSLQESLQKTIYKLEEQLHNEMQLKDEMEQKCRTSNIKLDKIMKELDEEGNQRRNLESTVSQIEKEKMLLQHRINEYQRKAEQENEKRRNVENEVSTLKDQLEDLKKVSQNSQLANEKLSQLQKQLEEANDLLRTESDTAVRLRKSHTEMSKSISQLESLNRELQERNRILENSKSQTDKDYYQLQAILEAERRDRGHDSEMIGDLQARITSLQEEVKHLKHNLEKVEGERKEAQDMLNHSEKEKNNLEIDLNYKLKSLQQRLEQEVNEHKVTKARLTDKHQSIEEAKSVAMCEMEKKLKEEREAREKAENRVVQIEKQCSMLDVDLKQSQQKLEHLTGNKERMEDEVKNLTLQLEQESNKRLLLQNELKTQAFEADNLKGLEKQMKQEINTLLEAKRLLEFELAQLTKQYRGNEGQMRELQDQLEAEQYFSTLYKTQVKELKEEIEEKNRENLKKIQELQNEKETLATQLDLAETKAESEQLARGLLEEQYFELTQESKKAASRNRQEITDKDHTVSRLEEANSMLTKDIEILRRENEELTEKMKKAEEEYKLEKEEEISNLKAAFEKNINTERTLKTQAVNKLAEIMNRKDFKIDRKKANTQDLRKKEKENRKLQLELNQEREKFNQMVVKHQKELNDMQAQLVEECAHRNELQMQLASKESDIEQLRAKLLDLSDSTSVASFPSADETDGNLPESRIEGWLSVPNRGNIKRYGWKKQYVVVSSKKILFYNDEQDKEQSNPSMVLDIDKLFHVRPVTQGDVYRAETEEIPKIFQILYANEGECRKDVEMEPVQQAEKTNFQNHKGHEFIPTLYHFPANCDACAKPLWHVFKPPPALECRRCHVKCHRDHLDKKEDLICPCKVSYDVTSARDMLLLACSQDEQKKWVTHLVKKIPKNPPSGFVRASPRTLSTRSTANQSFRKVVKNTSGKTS

[2] = tested on: three rat models of hypertension; settings: cited from earlier work
[3] = tested on: neointimal formation; settings: rats, model similar to balloon injury; cited from earlier work
[4] = tested on: IL-1 beta-induced coronary stenosis; settings: porcine model, long term treatment; cited from earlier work

Compound: COc1cc(C(=O)NCc2cccc(O)c2)ccc1-c1cn[nH]c1 [Example 6, N-(3-hydroxybenzyl)-3-methoxy-4-(1H-pyrazol-4-yl)benzamide]
IC50 [1]: 0.85 nM

Compound: C[C@@H](N)[C@H]1CC[C@H](C(=O)Nc2ccncc2)CC1 [Example Y-27632, Y-27632]
blood pressure ([2]; control rats): only a minor effect on blood pressure
blood pressure ([2]; spontaneously hypertensive rat, renal hypertensive rat and deoxycortisone acetate salt hypertensive rat models): significantly decrease blood pressure
neointimal formation [3]: inhibited neointimal formation

Compound: O=S(=O)(c1cccc2cnccc12)N1CCCNCC1 [fasudil]
coronary constrictive remodeling [4]: promote a regression of coronary constrictive remodeling
coronary stenosis [4]: progressively reduce coronary stenosis

Now from value to compound:

IC50 [1]: 2.63 nM
Compound: COC(=O)c1cccc(CNC(=O)c2ccc(-c3cn[nH]c3)c(OC)c2)c1 [Example 8, methyl 3-((3-methoxy-4-(1H-pyrazol-4-yl)benzamido)methyl)benzo-ate]

IC50 [1]: 26.5 nM
Compound: COc1cc(C(=O)NC(C)c2cc(F)cc(F)c2)ccc1-c1cn[nH]c1 (racemic) [Example 67, (+/−)-N-(1-(3,5-difluorophenyl)ethyl)-3-methoxy-4-(1H-pyrazol-4-yl)benzamide]

IC50 [1]: 3.05 nM
Compound: CNC(=O)c1cccc(CNC(=O)c2ccc(-c3cn[nH]c3)c(OC)c2)c1 [Example 65, 3-methoxy-N-(3-(methylcarbamoyl)benzyl)-4-(1H-pyrazol-4-yl)benzamide]
